Data on 32 compounds can be found in patent US11406622B2, “Glaucocalyxin a derivative, pharmaceutically acceptable salt thereof, or pharmaceutical composition thereof and uses thereof in preparation of drugs for treating psoriasis” (SUZHOU PHARMAVAN CO., LTD., priority 2017, dated 2022).

Where a name gives a salt, the structure may show the parent alone.

For series [1], the system named is human keratinocytes (HaCaT). The series is described as follows: Effect on proliferation of human keratinocytes, CCK-8, 48 h (Example 5). Type of series: cell-based. The note with it: 48 hours of treatment. The procedure: In this example, the glaucocalyxin A derivatives of the present application, or pharmaceutically acceptable salts thereof, were examined for the effect on the proliferation of human keratinocytes. In this example, the glaucocalyxin A derivatives as shown in Table 1 were examined by using the following procedure. A cell suspension was prepared and inoculated into three 96-well plates at 8000 cells in a volume of 150 μl per well, which were then cultured overnight in an incubator at 37° C., 5% CO2. On the next day, 50 μl of test compound solution at different concentrations was added to each well. Triplicate wells were set up for each concentration. A vehicle control group (without compound), a cell control group (without compound and vehicle), and a blank medium control group (without cells, a well for null adjustment) were also set up, and cultured for an additional 48 hours. CCK-8 staining working solution was added at 110 μL per well, and cultured for additional 1-4 h. At the end of the culture, the absorbances were measured at 450 nm (OD450 nm) on a Bio-Tek enzyme-linked immunosorbent assay. The results were expressed as the mean OD450 nm value of triplicates±standard deviation (x±sd). The Origin 7.0 was used for plotting and analysis. A fitting curve was obtained by plotting the OD value of each group against the logarithmic concentration of the test compound, and then the IC50 value was determined.

The subject of series [2] is BALB/c mice. Nature of the series: Acute toxicity in BALB/c mice, single tail-vein injection (Example 9). In kind it is in vivo, mouse. The note with it: single intravenous injection, 10 mg/kg. The source says: In this example, Compound 23 and Compound 24 were detected for their acute toxicities, and the detection method was as follows.
Experimental procedure: 40 BALB/c mice, half male and half female, were randomly divided into groups after weight measurement. The weight of an individual should be within the range of the average body weight±20%. Animals should be allowed to acclimatize to the environment for at least 5 days before the test, and healthy (if female, it must be un-pregnant) mice were selected as test animals. The main inspections during the acclimatization period included: whether it met the quality indicators required at the time of ordering; general state check; and whether the weight reached the weight range required by the test. Unqualified abnormal animals were not included in this test. A single tail-vein injection was administrated to the mice at a low, medium, or high dose, which was 5 mg/kg, 10 mg/kg, or 40 mg/kg respectively according to a blank preparation pre-test. An equal volume of vehicle was intravenously injected to establish a control group.
Mice were observed once respectively at 0 to 2 hours and 4 to 6 hours after each administration. If toxic symptoms occurred, the number of observations could be increased. (2) Gross anatomy observation: All the surviving mice in each group were dissected and observed on the 8th day of the experiment. The abnormal organs and tissues found in the observation of administration sites and in the gross anatomy observation that might be related to the test samples were photographed and recorded. (3) Disposal of dying animals: The state of the mouse and the observation time were recorded, and the body weight was measured. (4) Disposal of dead animals: The time of death or the time when the death was found was recorded, the body weight was measured, and then the dissection was quickly performed for gross observation to speculate the cause of death.

Series [3] concerns mouse spleen lymphocytes. Nature of the series: ConA-induced proliferation of mouse spleen lymphocytes, MTT (Example 8). Type of series: cell-based. The note with it: 48 h, 5 μg/mL ConA. On the procedure:
In this example, the glaucocalyxin A derivatives and pharmaceutically acceptable salts thereof were detected for the effect thereof on ConA-induced proliferation of mouse spleen lymphocytes.
2×10^7/mL cell suspension was prepared and a 5 μg/μL ConA stock solution was added thereto at a final concentration of 5 μg/mL. The resulting mixture was inoculated into a 96-well culture plate at 0.1 mL per well. Then 0.1 mL of test compound at different concentrations was added to each well. Triplicate or quadruplicate wells were set up for each group, and a vehicle control group (without compound), a stimulant control group (with ConA, without compound, and without vehicle), a cell control group (without ConA, without compound, and without vehicle), and a blank medium control group (without cells, a well for null adjustment) were also set up, and cultured at 37° C., 5% CO2 for 48 h. MTT solution at 5 mg/mL was added at 20 μl per well, and cultured for an additional 4 hours. The culture plate was taken out and centrifuged at 1000 rpm for 10 min. The supernatant of each well was aspirated, and 100 μL of SDS cell lysis solution was added to each well, and cultured overnight. On the next day, the absorbance at 550 nm (OD550nm) was measured on an enzyme-linked immunoassay analyzer. The results were expressed as the mean OD550nm value of the triplicates or quadruplicates±standard deviation (x±sd). SPSS software version 17.0 was used for statistical analysis of the mean values, that is, the vehicle group was compared with the stimulant group, and the test group of each compound concentration was compared with the corresponding vehicle control group. The cell survival rate of each group was calculated according to the mean value for the compound treatment group and the mean value for the vehicle control group, that is, the cell survival rate (%)=the mean value for the compound treatment group/the mean value for the vehicle control group×100%. A linear regression equation was obtained by plotting the cell survival rate of each group against the concentration of the test compound, statistical test of the correlation coefficient was conducted, and then the IC50 value was determined.

Broadly, the IC50 is the concentration needed to halve the response being measured. Higher therefore signals weaker potency in that assay. In series [1], `C=C1C(=O)C23C(O)CC4C(C)(C)c5nc(N)sc5CC4(C)C2CCC1C3O` (stereo not shown) [Compound 01] gave an IC50 of 3.21 µM.

On to `C=C1C(=O)C23C(O)CC4C(C)(C)c5nc(N)sc5CC4(C)C2CCC1C3O` (stereo not shown) [Compound 02], for which inhibition in series [1] was half-maximal at 3.52 µM (IC50). Same read-out and setting: under `C=C1C(=O)C23C(O)CC4C(C)(C)c5nc(N)sc5CC4(C)C2CCC1C3O` (stereo not shown) [Compound 03] stands 4.02 µM. On the same count and under the same terms, the value for `C=C1C(=O)C23C(O)CC4C(C)(C)c5nc(N)sc5CC4(C)C2CCC1C3O` (stereo not shown) [Compound 04] was 4.1 µM; that for `C=C1C(=O)C23C(O)CC4C(C)(C)c5nc(N)sc5CC4(C)C2CCC1C3O` (stereo not shown) [Compound 05] was 3.45 µM; that for `C=C1C(=O)C23C(O)CC4C(C)(C)c5nc(N)sc5CC4(C)C2CCC1C3O` (stereo not shown) [Compound 06] was 2.91 µM. On the same count and under the same terms, the value for `C=C1C(=O)C23C(O)CC4C(C)(C)c5nc(N)sc5CC4(C)C2CCC1C3O` (stereo not shown) [Compound 07] was 3.28 µM; that for `C=C1C(=O)C23C(O)CC4C(C)(C)c5nc(N)sc5CC4(C)C2CCC1C3O` (stereo not shown) [Compound 08] was 2.85 µM; that for `C=C1C(=O)C23C(O)CC4C(C)(C)c5nc(N)sc5CC4(C)C2CCC1C3O` (stereo not shown) [Compound 09] was 2.42 µM. For the compound `C=C1C(=O)C23C(O)CC4C(C)(C)c5nc(N)sc5CC4(C)C2CCC1C3O` (stereo not shown) [Compound 10], the 50% inhibitory concentration (IC50) in series [1] worked out at 3.86 µM. The same measure, in the same setting: under `C=C1C(=O)C23C(O)CC4C(C)(C)c5nc(N)sc5CC4(C)C2CCC1C3O` (stereo not shown) [Compound 11] stands 3 µM; under `C=C1C(=O)C23C(O)CC4C(C)(C)c5nc(NN)sc5CC4(C)C2CCC1C3O` (stereo not shown) [Compound 12], 1.21 µM. On the same count and under the same terms, the value for `C=C1C(=O)C23C(O)CC4C(C)(C)c5nc(Nc6ccncc6)sc5CC4(C)C2CCC1C3O` (stereo not shown) [Compound 13] was 3.62 µM; that for `C=C1C(=O)C23C(O)CC4C(C)(C)c5nc(NCCC)sc5CC4(C)C2CCC1C3O` (stereo not shown) [Compound 14] was 7 µM. The same measure, in the same setting: under `C=C1C(=O)C23C(O)CC4C(C)(C)c5nc(NC(C)C)sc5CC4(C)C2CCC1C3O` (stereo not shown) [Compound 15] stands 6.95 µM. In series [1], `C=C1C(=O)C23C(O)CC4C(C)(C)c5nc(NCCCC)sc5CC4(C)C2CCC1C3O` (stereo not shown) [Compound 16] showed a 50% inhibitory concentration (IC50) of 8.88 µM.

Regarding `C=C1C(=O)C23C(O)CC4C(C)(C)c5nc(NCCCCCC)sc5CC4(C)C2CCC1C3O` (stereo not shown) [Compound 17], in series [1], the IC50 worked out at 4.29 µM. Still for that read-out and setting: under `C=CCNc1nc2c(s1)CC1(C)C(CC(O)C34C(=O)C(=C)C(CCC13)C4O)C2(C)C` (stereo not shown) [Compound 18] stands 7.24 µM; under `C=C1C(=O)C23C(O)CC4C(C)(C)c5nc(NC6CCCCC6)sc5CC4(C)C2CCC1C3O` (stereo not shown) [Compound 19], 8.16 µM; under `C=C1C(=O)C23C(O)CC4C(C)(C)c5nc(Nc6ccccc6)sc5CC4(C)C2CCC1C3O` (stereo not shown) [Compound 20], 9.31 µM. Same read-out and setting: the value for `C=C1C(=O)C23C(O)CC4C(C)(C)c5nc(NCc6ccccc6)sc5CC4(C)C2CCC1C3O` (stereo not shown) [Compound 21] was 9.2 µM. On the same count and under the same terms, the value for `C=C1C(=O)C23C(O)CC4C(C)(C)c5nc(N(C)C)sc5CC4(C)C2CCC1C3O` (stereo not shown) [Compound 22] was 0.95 µM. `Br.C=C1C(=O)C23C(O)CC4C(C)(C)c5nc(NC)sc5CC4(C)C2CCC1C3O` (stereo not shown) [Compound 24] came in with an IC50 in series [1] of 3.17 µM. For the same compound, the animals that died result in series [2] is reported as “All animals”. For the compound `C=C1C(=O)C23C(O)CC4C(C)(C)c5nc(NCC)sc5CC4(C)C2CCC1C3O` (stereo not shown) [Compound 25], the IC50 in series [1] is 5.49 µM. In series [1], `C=C1C(=O)C23C(O)CC4C(C)(C)c5nc(NCCC)sc5CC4(C)C2CCC1C3O` (stereo not shown) [Compound 26] returned an IC50 of 7.86 µM. Still for that read-out and setting: the value for `C=C1C(=O)C23C(O)CC4C(C)(C)c5nc(NC(C)C)sc5CC4(C)C2CCC1C3O` (stereo not shown) [Compound 27] was 6.92 µM; that for `C=C1C(=O)C23C(O)CC4C(C)(C)c5nc(N(CC)CC)sc5CC4(C)C2CCC1C3O` (stereo not shown) [Compound 28] was 1.26 µM; that for `C=C1C(=O)C23C(O)CC4C(C)(C)c5nc(N(CCC)CCC)sc5CC4(C)C2CCC1C3O` (stereo not shown) [Compound 29] was 1.85 µM. The same measure, in the same setting: under `C=C1C(=O)C23C(O)CC4C(C)(C)c5nc(N(C(C)C)C(C)C)sc5CC4(C)C2CCC1C3O` (stereo not shown) [Compound 30] stands 2.37 µM. In the case of `C=C1C(=O)[C@@]23[C@H](O)C[C@@H]4C(C)(C)C(=O)CC[C@@]4(C)[C@@H]2CC[C@@H]1[C@H]3O` [Compound 31, glaucocalyxin A], the IC50 in series [1] (Homo sapiens) came out at 30.5 µM. The same measure, in the same setting: the value for `CN(C)C[C@@H]1C(=O)C23C(O)C1CCC2[C@]1(C)CCC(=O)C(C)(C)[C@H]1C[C@H]3O` (stereo partly shown) [Compound 32, dimethylamino glaucocalyxin A hydrochloride, reference compound] was 18.7 µM.

With `CC(C)[C@]12O[C@H]1[C@@H]1O[C@]13[C@]1(O[C@H]1C[C@H]1C4=C(CC[C@@]13C)C(=O)OC4)[C@@H]2O` [triptolide, reference compound], in series [3] (Table 4, 0.001 μg/mL), the “OD550nm value (x ± sd)” value is recorded as 1.03 and the “Survival rate (%)” value was found to be 98%. Moreover, in series [3] (Table 4, 0.1 μg/mL), the “OD550nm value (x ± sd)” value turned out to be 0.42 and the “Survival rate (%)” value was found to be 40%. In addition, the “effect on ConA-induced proliferation of mouse spleen lymphocytes (in words)” value in series [3] (range of concentrations tested) is “varying degrees of inhibition”.
